Series [1] has as its target PI3Kα (Homo sapiens, UniProt P42336). The series is described as follows: PI3K-alpha fluorescence polarization assay. The series is classed as biochemical. Conditions: read-out: PI3Kα Median IC50. A general note: Polarisation of emitted light reports the rotation of a fluorescent probe.
Series [2] concerns the target PI3Kγ (Homo sapiens, UniProt P48736). The series is described as follows: PI3K-gamma fluorescence polarization assay. Format: biochemical. Conditions: read-out: PI3Kγ Median IC50.
The target in series [3] is mTOR (Homo sapiens, UniProt P42345). The series is described as follows: mTOR enzyme assay (DELFIA format, His6-S6K substrate). Format: biochemical.
Where [4] appears, read: read-out: mTOR Kinase Median IC50.

Usually melting point stands for the temperature of the solid-liquid transition. The term IC50 denotes the concentration that inhibits the measured activity by half.

Molecules are shown by their SMILES. Read-outs that look alike come from different tables or passages of the source.

PI3Kγ, sequence (P48736 whole entry, species assumed): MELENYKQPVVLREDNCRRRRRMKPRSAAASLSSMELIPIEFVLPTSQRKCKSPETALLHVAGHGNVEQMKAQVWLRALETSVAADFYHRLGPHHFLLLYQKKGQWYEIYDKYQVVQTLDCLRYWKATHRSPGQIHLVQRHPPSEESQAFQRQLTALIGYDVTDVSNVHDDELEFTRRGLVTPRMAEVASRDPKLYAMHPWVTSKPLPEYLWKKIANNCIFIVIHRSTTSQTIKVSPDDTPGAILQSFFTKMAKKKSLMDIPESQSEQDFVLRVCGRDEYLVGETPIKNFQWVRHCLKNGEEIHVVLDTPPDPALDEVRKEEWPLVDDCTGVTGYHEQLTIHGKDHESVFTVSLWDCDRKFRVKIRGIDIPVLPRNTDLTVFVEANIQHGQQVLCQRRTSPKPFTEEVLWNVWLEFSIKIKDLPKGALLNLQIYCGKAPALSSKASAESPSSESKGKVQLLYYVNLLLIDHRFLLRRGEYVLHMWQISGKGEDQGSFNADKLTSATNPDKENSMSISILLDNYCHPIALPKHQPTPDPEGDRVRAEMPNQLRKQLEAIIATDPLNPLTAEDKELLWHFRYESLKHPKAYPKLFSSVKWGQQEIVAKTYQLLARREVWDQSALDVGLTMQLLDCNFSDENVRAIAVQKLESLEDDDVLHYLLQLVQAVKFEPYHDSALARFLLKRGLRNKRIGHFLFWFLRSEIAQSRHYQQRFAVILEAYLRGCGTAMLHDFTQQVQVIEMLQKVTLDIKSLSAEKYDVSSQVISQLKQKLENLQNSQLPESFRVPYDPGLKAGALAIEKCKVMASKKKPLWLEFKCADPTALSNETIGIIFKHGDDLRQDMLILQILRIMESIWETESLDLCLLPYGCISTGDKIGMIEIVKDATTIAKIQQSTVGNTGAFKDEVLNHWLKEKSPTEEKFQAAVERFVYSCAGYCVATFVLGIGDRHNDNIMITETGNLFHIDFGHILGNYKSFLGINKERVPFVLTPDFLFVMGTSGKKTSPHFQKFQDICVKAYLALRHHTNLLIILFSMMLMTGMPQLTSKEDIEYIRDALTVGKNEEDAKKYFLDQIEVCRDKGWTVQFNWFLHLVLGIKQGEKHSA
PI3Kα, sequence (P42336 whole entry, species assumed): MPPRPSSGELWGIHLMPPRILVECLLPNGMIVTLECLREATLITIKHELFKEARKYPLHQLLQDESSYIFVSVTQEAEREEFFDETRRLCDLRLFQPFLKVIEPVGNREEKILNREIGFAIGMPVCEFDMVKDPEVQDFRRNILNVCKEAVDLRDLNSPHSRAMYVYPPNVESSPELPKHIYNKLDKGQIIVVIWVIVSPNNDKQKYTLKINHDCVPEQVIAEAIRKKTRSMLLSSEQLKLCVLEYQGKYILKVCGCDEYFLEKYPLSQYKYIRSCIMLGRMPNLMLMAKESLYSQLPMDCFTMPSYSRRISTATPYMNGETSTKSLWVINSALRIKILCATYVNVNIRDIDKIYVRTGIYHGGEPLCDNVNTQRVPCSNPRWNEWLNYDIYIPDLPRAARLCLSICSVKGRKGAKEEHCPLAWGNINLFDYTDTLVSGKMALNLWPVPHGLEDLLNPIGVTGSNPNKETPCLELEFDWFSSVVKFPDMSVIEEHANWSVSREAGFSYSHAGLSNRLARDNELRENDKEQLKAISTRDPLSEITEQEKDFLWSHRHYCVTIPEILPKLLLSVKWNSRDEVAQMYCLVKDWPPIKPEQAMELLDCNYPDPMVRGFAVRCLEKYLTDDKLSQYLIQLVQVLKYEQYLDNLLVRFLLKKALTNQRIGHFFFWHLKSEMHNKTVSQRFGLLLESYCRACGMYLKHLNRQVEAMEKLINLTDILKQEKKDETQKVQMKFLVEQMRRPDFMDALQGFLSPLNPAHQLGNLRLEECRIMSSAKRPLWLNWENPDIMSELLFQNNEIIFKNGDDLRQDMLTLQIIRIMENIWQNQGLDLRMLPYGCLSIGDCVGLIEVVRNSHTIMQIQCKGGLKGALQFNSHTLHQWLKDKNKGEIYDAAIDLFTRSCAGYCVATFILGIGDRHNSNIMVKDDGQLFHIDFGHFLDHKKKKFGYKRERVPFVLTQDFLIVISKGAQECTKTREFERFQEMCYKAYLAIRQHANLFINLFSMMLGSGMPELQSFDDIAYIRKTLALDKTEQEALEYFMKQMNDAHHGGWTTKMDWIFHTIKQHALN
PI3Kα, sequence (P27986 whole entry partner, species assumed): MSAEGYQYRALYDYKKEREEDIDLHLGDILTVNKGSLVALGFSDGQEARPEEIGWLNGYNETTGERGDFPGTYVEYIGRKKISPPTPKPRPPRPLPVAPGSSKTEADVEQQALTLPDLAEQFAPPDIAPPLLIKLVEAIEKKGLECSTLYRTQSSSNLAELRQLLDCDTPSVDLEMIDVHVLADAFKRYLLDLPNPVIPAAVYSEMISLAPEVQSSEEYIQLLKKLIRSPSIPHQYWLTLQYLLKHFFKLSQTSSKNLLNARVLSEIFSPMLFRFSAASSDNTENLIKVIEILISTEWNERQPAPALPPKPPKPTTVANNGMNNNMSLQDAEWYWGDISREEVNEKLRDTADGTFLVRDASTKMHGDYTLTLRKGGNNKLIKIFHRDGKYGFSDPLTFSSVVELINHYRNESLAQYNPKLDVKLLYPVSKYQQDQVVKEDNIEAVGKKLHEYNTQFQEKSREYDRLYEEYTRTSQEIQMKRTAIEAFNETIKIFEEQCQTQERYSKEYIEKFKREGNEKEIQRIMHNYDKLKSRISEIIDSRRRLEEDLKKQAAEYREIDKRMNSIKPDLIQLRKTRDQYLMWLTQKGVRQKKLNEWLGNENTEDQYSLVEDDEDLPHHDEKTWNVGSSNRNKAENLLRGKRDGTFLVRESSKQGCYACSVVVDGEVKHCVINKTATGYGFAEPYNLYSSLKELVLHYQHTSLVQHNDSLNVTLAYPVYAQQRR

In turn, `Cn1cc(/C=C2\Oc3cccc(O)c3C2=O)c2c(N3CCC(CN)CC3)ccnc21` [Compound 115, (2Z)-2-({4-[4-(aminomethyl)piperidin-1-yl]-1-methyl-1H-pyrrolo[2,3-b]pyridin-3-yl}methylene)-4-hydroxy-1-benzofuran-3(2H)-one] showed a melting point of 230 to 238 °C. Further, in series [1], the IC50 turned out to be 155 nM. For the same compound, the IC50 in series [2] stood at 208 nM. For the same compound, the IC50 in series [3] (setting [4]) was determined as 17 nM.

`Cn1cc(/C=C2\Oc3cccc(O)c3C2=O)c2c(N3CC4CC3CO4)ccnc21` (stereo not drawn) [Compound 117, (2Z)-4-hydroxy-2-{[1-methyl-4-(2-oxa-5-azabicyclo[2.2.1]hept-5-yl)-1H-pyrrolo[2,3-b]pyridin-3-yl]methylene}-1-benzofuran-3(2H)-one]: the melting point was 258 to 263 °C. In series [1], the IC50 is 30 nM. The IC50 in series [2] amounted to 88 nM. In series [3] (setting [4]), the IC50 amounted to 4.4 nM.

Compound `CN(C)CCCN1CCN(c2ccnc3c2c(/C=C2\Oc4cccc(O)c4C2=O)cn3C)CC1` [Compound 118, (2Z)-2-[(4-{4-[3-(dimethylamino)propyl]piperazin-1-yl}-1-methyl-1H-pyrrolo[2,3-b]pyridin-3-yl)methylene]-4-hydroxy-1-benzofuran-3(2H)-one] returned a melting point of 263 to 268 °C. Besides, the IC50 in series [1] was 286 nM. Also, in series [2], the IC50 amounted to 791 nM. Also, in series [3] (setting [4]), the IC50 came out at 20 nM.

Take `CN(C)C(=O)c1cccc(-c2ccnc3c2c(/C=C2\Oc4cccc(O)c4C2=O)cn3C)c1` [Compound 121, 3-{3-[(Z)-(4-hydroxy-3-oxo-1-benzofuran-2(3H)-ylidene)methyl]-1-methyl-1H-pyrrolo[2,3-b]pyridin-4-yl}-N,N-dimethylbenzamide]: the melting point is 220 to 223 °C. In series [1], the IC50 is 369 nM. Also, in series [2], the IC50 was 425 nM. Moreover, the IC50 in series [3] (setting [4]) is 18 nM.

With `CN(C)Cc1cccc(-c2ccnc3c2c(/C=C2\Oc4cccc(O)c4C2=O)cn3C)c1` [Compound 122, (2Z)-2-[(4-{3-[(dimethylamino)methyl]phenyl}-1-methyl-1H-pyrrolo[2,3-b]pyridin-3-yl)methylene]-4-hydroxy-1-benzofuran-3(2H)-one], the melting point lay within 308 to 315 °C. The IC50 in series [1] stood at 60 nM. Besides, the IC50 in series [2] stood at 279 nM. In addition, in series [3] (setting [4]), the IC50 stood at 18 nM.

`CN1CCN(C2CCN(c3ccnc4c3c(/C=C3\Oc5cccc(O)c5C3=O)cn4C)CC2)CC1` [Compound 129, (2Z)-4-hydroxy-2-({1-methyl-4-[4-(4-methylpiperazin-1-yl)piperidin-1-yl]-1H-pyrrolo[2,3-b]pyridin-3-yl}methylene)-1-benzofuran-3(2H)-one] displayed a melting point of 239 to 242 °C. Besides, in series [1], the IC50 worked out at 47 nM. Further, the concentration for half-maximal inhibition (IC50) in series [2] was 167 nM. The IC50 in series [3] (setting [4]) amounted to 14 nM.

`CNC(=O)Nc1ccc2c(c1)C(=O)/C(=C/c1cn(C)c3nccc(N4CC5CCC(C4)O5)c13)O2` [Compound 131, 1-methyl-3-[(2Z)-2-{[1-methyl-4-(8-oxa-3-azabicyclo[3.2.1]oct-3-yl)-1H-pyrrolo[2,3-b]pyridin-3-yl]methylene}-3-oxo-2,3-dihydro-1-benzofuran-5-yl]urea]: the melting point is 247 to 255 °C. The IC50 in series [1] was determined as 580 nM. The IC50 in series [2] came to 557 nM. Moreover, in series [3] (setting [4]), the IC50 came to 9.5 nM.

In turn, `CNC(=O)c1ccc(-c2ccnc3c2c(/C=C2\Oc4cccc(O)c4C2=O)cn3C)cc1` [Compound 132, 4-{3-[(Z)-(4-hydroxy-3-oxo-1-benzofuran-2(3H)-ylidene)methyl]-1-methyl-1H-pyrrolo[2,3-b]pyridin-4-yl}-N-methylbenzamide] yielded a melting point of 175 °C. The IC50 in series [1] worked out at 33 nM. Moreover, in series [2], the IC50 is 83 nM. In addition, the IC50 in series [3] (setting [4]) came out at 1.7 nM.

In the case of `CNC(=O)Nc1ccc(-c2ccnc3c2c(/C=C2\Oc4cccc(O)c4C2=O)cn3C)cc1` [Compound 133, 1-(4-{3-[(Z)-(4-hydroxy-3-oxo-1-benzofuran-2(3H)-ylidene)methyl]-1-methyl-1H-pyrrolo[2,3-b]pyridin-4-yl}phenyl)-3-methylurea], the melting point was 298 to 305 °C (dec.). For the same compound, in series [1], the IC50 was determined as 37 nM. Besides, the IC50 in series [2] came to 30 nM. In addition, in series [3] (setting [4]), the IC50 amounted to 1.5 nM.

`CC(=O)c1ccc(-c2ccnc3c2c(/C=C2\Oc4cccc(O)c4C2=O)cn3C)cc1` [Compound 134, (2Z)-2-{[4-(4-acetylphenyl)-1-methyl-1H-pyrrolo[2,3-b]pyridin-3-yl]methylene}-4-hydroxy-1-benzofuran-3(2H)-one] displayed a melting point of 250 to 253 °C. Besides, the IC50 in series [1] came out at 55 nM. In series [2], the IC50 amounted to 89 nM. In addition, the IC50 in series [3] (setting [4]) is 3.8 nM.

The compound `Cn1cc(/C=C2\Oc3cccc(O)c3C2=O)c2c(N3CCC(N)CC3)ccnc21` [Compound 139, (2Z)-2-{[4-(4-aminopiperidin-1-yl)-1-methyl-1H-pyrrolo[2,3-b]pyridin-3-yl]methylene}-4-hydroxy-1-benzofuran-3(2H)-one] returned a melting point of 260 °C. In addition, the IC50 in series [1] came out at 119 nM. Moreover, the IC50 in series [2] was 1270 nM. Moreover, in series [3] (setting [4]), the IC50 was found to be 19 nM.

Compound `CN(C)C(=O)Nc1ccc(-c2ccnc3c2c(/C=C2\Oc4cccc(O)c4C2=O)cn3C)cc1` [Compound 140, 3-(4-{3-[(Z)-(4-hydroxy-3-oxo-1-benzofuran-2(3H)-ylidene)methyl]-1-methyl-1H-pyrrolo[2,3-b]pyridin-4-yl}phenyl)-1,1-dimethylurea] had a melting point of 235 to 238 °C. Further, the IC50 in series [1] amounted to 59 nM. The IC50 in series [2] was 74 nM. Besides, the IC50 in series [3] (setting [4]) is 2 nM.

Compound `CN(C)C(=O)c1ccccc1-c1ccnc2c1c(/C=C1\Oc3cccc(O)c3C1=O)cn2C` [Compound 141, 2-{3-[(Z)-(4-hydroxy-3-oxo-1-benzofuran-2(3H)-ylidene)methyl]-1-methyl-1H-pyrrolo[2,3-b]pyridin-4-yl}-N,N-dimethylbenzamide] had a melting point of 293 to 295 °C. Further, the IC50 in series [1] is 5900 nM. Also, in series [2], the IC50 was 1860 nM. Also, in series [3] (setting [4]), the IC50 was 180 nM.

`Cn1cc(/C=C2\Oc3cccc(O)c3C2=O)c2c(-c3ccc(C(=O)N4CC5CCC(C4)O5)cc3)ccnc21` [Compound 144, (2Z)-4-hydroxy-2-({1-methyl-4-[4-(8-oxa-3-azabicyclo[3.2.1]oct-3-ylcarbonyl)phenyl]-1H-pyrrolo[2,3-b]pyridin-3-yl}methylidene)-1-benzofuran-3(2H)-one] came in with a melting point of 296 to 298 °C. The IC50 in series [1] was 57 nM. Also, in series [2], the IC50 was found to be 77 nM. For the same compound, the IC50 in series [3] (setting [4]) turned out to be 0.6 nM.

Take `CN(C)C(=O)C1CCN(c2ccnc3c2c(/C=C2\Oc4cccc(O)c4C2=O)cn3C)CC1` [Compound 145, 1-{3-[(Z)-(4-hydroxy-3-oxo-1-benzofuran-2(3H)-ylidene)methyl]-1-methyl-1H-pyrrolo[2,3-b]pyridin-4-yl}-N,N-dimethylpiperidine-4-carboxamide]: the melting point is 185 to 195 °C. For the same compound, the IC50 in series [1] came out at 38 nM. The IC50 in series [2] turned out to be 74 nM. The IC50 in series [3] (setting [4]) was determined as 0.6 nM.

`Cn1cc(/C=C2\Oc3cccc(O)c3C2=O)c2c(N3CCC(C(=O)NCCO)CC3)ccnc21` [Compound 148, N-(2-hydroxyethyl)-1-{3-[(Z)-(4-hydroxy-3-oxo-1-benzofuran-2(3H)-ylidene)methyl]-1-methyl-1H-pyrrolo[2,3-b]pyridin-4-yl}piperidine-4-carboxamide] had a melting point of 232 to 242 °C. Also, the IC50 in series [1] worked out at 39 nM. The IC50 in series [2] amounted to 94 nM. Besides, the IC50 in series [3] (setting [4]) was 0.7 nM.

In turn, `Cn1cc(/C=C2\Oc3cccc(O)c3C2=O)c2c(N3CCC(C(=O)N4CCOCC4)CC3)ccnc21` [Compound 150, (2Z)-4-hydroxy-2-({1-methyl-4-[4-(morpholin-4-ylcarbonyl)piperidin-1-yl]-1H-pyrrolo[2,3-b]pyridin-3-yl}methylidene)-1-benzofuran-3(2H)-one] had a melting point of 358 to 361 °C. The IC50 in series [1] was determined as 63 nM. Further, the IC50 in series [2] worked out at 50 nM. Further, in series [3] (setting [4]), the IC50 worked out at 1.4 nM.

On to `Cn1cc(/C=C2\Oc3cccc(O)c3C2=O)c2c(N3C4CCC3COC4)ccnc21` [Compound 151, (2Z)-4-hydroxy-2-{[1-methyl-4-(3-oxa-8-azabicyclo[3.2.1]oct-8-yl)-1H-pyrrolo[2,3-b]pyridin-3-yl]methylidene}-1-benzofuran-3(2H)-one], for which the melting point was 284 to 291 °C. In addition, the concentration for half-maximal inhibition (IC50) in series [1] turned out to be 19 nM. Further, in series [2], the IC50 worked out at 49 nM. In series [3], this compound gave an IC50 of 2.1 nM.

The compound `Cn1cc(/C=C2\Oc3cccc(O)c3C2=O)c2c(N3CCC(C(=O)N4CCCC4)CC3)ccnc21` [Compound 152, (2Z)-4-hydroxy-2-({1-methyl-4-[4-(pyrrolidin-1-ylcarbonyl)piperidin-1-yl]-1H-pyrrolo[2,3-b]pyridin-3-yl}methylidene)-1-benzofuran-3(2H)-one] registered a melting point of 191 to 207 °C. In addition, in series [1], the 50% inhibitory concentration (IC50) worked out at 31 nM. In series [2], the IC50 was 32 nM. Besides, in series [3] (setting [4]), the IC50 amounted to 0.6 nM.

As for `CC(=O)Nc1ccc2c(c1)C(=O)/C(=C/c1cn(C)c3nccc(-c4ccccc4)c13)O2` [Compound 154, N-{(2Z)-2-[(1-methyl-4-phenyl-1H-pyrrolo[2,3-b]pyridin-3-yl)methylidene]-3-oxo-2,3-dihydro-1-benzofuran-5-yl}acetamide], the melting point fell in the range of 332 to 335 °C. For the same compound, the IC50 in series [1] stood at 1390 nM. In series [2], the IC50 came to 1070 nM. In addition, the IC50 in series [3] (setting [4]) worked out at 69 nM.

On to `CC(=O)Nc1ccc2c(c1)C(=O)/C(=C/c1cn(C)c3nccc(N4CC5CCC(C4)O5)c13)O2` [Compound 155, N-[(2Z)-2-{[1-methyl-4-(8-oxa-3-azabicyclo[3.2.1]oct-3-yl)-1H-pyrrolo[2,3-b]pyridin-3-yl]methylidene}-3-oxo-2,3-dihydro-1-benzofuran-5-yl]acetamide], for which the melting point is 275 to 285 °C (dec.). In addition, the IC50 in series [1] turned out to be 150 nM. The IC50 in series [2] turned out to be 306 nM. Besides, the IC50 in series [3] (setting [4]) amounted to 14.5 nM.
